{
  "source": "patent US9603836B2",
  "about": "“Pyrrolidine-2, 5-dione derivatives, pharmaceutical compositions and methods for use as IDO1 inhibitors” (ITEOS THERAPEUTICS, priority 2014, dated 2017)",
  "key": {"Kynurenine [1]": {"tested_on": "Kynurenine", "experiment": "In-vivo inhibition of blood kynurenine levels in healthy mice", "design": "species or system mouse", "conditions": "two hours", "description": "The compounds of the present invention reduce the amount of Kynurenine in healthy mouse blood.\nBriefly, mice were treated with either a suspension of one of the compounds of the present invention in 0.5% hydroxypropyl methylcellulose (HPMC) K4M/0.25% Tween 20 at different doses, or with a vehicle control (0.5% HPMC K4M/0.25% Tween 20), by the oral route by gavage (dosing volume 5 mL/kg, 10 mice per group). After two hours, blood was harvested, plasma was prepared and the amount of Kynurenine present was determined by LC-MS-MS (HPLC column Unison UK-Phenyl, 75×4.6, 3 μm, flow rate 0.8 mL/min, 4 minutes gradient from water+0.2% acetic acid to methanol+0.1% formic acid, retention time 2.7 min; API4000™ MS-MS system from AB Sciex, ESI+ mode, parent ion 209.2, daughter ion 94.1)."}, "4T1 tumors": {"tested_on": "4T1 tumors", "experiment": "In vivo efficacy in 4T1 breast cancer syngeneic model", "design": "species or system Balb/c mice", "conditions": "4T1, 100 mg/kg BID oral", "description": "In vivo efficacy studies for Compounds of the present invention were performed on 4T1 syngeneic tumor model of Balb/c mice implanted orthotopically in the mammary gland. One hundred thousand 4T1 breast cancer cells (ATCC® CRL-2539™)] were implanted orthotopically within the mammary gland of 7 weeks old Balb/c mice (day 0). Animals were randomized based on tumor size when tumor average reached 60 mm^3 (between day 7 and 11) into different treatment cohorts. The Compound of the present invention was administered orally twice per day (approximately at 9 am and 5 pm) starting the day of randomization. The Compounds were suspended into Methocel™ cellulose ether vehicle and sonicated before oral administration to animals using gavage needles. Treatment was administered daily until the end of the study. All experimental animals were monitored for body weight changes twice weekly. Tumor volume was measured twice a week by a caliper device and calculated with the following formula: Tumor volume=0.5×(length×width^2). Studies were terminated before tumor volumes reached 2000 mm. TGI (% tumor growth inhibition) was determined as […]"}, "PancO2 tumors": {"tested_on": "PancO2 tumors", "experiment": "In vivo efficacy in PancO2 pancreatic cancer syngeneic model", "design": "species or system C57/B16 mice", "conditions": "PancO2, 200 mg/kg BID oral", "description": "In vivo efficacy studies of the Compounds of the present invention were performed on PancO2 syngeneic tumor model of C57/B16 mice implanted subcutaneously. Five millions PancO2 pancreas cancer cells were implanted subcutaneously to 7 weeks old C57/B16 mice (day 0). Animals were randomized based on tumor size when tumor average reached 60 mm^3 (between day 10 and 12) into different treatment cohorts. The Compound was administered orally twice per day (approximately at 9 am and 5 pm) starting the day of randomization. The Compound was suspended into Methocel vehicle and sonicated before oral administration to animals using gavage needles. Treatment was administered daily until the end of the study. All experimental animals were monitored for body weight changes weekly. Tumor volume was measured weekly using a caliper device and calculated with the following formula: Tumor volume=0.5×(length×width^2). Studies were terminated before tumor volumes reached 2000 mm. TGI (% tumor growth inhibition) was determined as\nTreatment was administered daily until the end of the study. Tumor volume was measured weekly using a caliper device and calculated with the following formula: Tumor volume=0.5×(length×width^2). Mice were considered as dead when tumor size reached 400 mm^3. […] SEM refers to standard error of measurement."}, "Kynurenine [2]": {"tested_on": "Kynurenine", "experiment": "Inhibition of tryptophan degradation in 4T1 tumor tissue", "type": "in vivo, Balb/c mice", "conditions": "200 mg/kg oral twice per day, 4 h after administration", "description": "Compounds of this invention are capable of lowering kynurenine concentration within mouse tumors, for example 4T1 syngeneic tumors of Balb/c mice implanted orthotopically in the mammary gland. One hundred thousand 4T1 breast cancer cells were implanted orthotopically within the mammary gland of 7 weeks old Balb/c mice (day 0). Animals were randomized based on tumor size when tumor average reached 60 mm^3 (day 6) into different treatment cohorts (n=10/group). Animals were treated with Methocel vehicle from day 6 to 26 until tumors reached a size comprised between 1500 and 2000 mm^3. […] The tumor was removed, weighted and frozen on dry ice. Tumors were analyzed by LC/MS-MS for Kynurenine concentration."}, "Kynurenine [3]": {"tested_on": "Kynurenine", "experiment": "Inhibition of tryptophan degradation in CT26 tumor tissue", "type": "in vivo, Balb/c mice", "conditions": "200 mg/kg oral twice per day, 2 h after administration", "description": "(§1) In the present study, CT26 syngeneic tumors were implanted subcutaneously in Balb-c mice. More particularly, Five hundred thousand (500,000) CT26 colon carcinoma cancer cells [CT26.WT, available from the ATCC® CRL-2628™] were implanted subcutaneously in 7 weeks old Balb/c mice (day 0). Animals were randomized based on tumor size when tumor average reached 150 mm^3 (day 11) into different treatment cohorts (n=10/group). […] The tumor was removed, weighted and frozen on dry ice. Tumors were analyzed by LC/MS-MS for Kynurenine concentration."}, "CT26 tumors": {"tested_on": "CT26 tumors", "experiment": "Tumor growth inhibition in CT26 colon syngeneic mouse tumor model", "type": "in vivo, Balb/c mice", "description": "as §1\nIn a separate study, anti-tumor efficacy of IDO-1 inhibition was tested in the colon syngeneic mouse tumor model CT26 with a range of different treatment regimens. The model was essentially as described above, except that 1×10^6 cells in phosphate buffered saline (PBS) were implanted subcutaneously in the flank of 8 week old Balb/c females on day 0 (10 in each group). Mice were randomized into treatment groups (100 mg/kg BID, 200 mg/kg BID or 600 mg/kg BID) based on tumor size on day 9 when treatment started. The results are shown the following table and in FIG. 7."}},
  "data": [
    {"smiles": "O=C1CC(c2c[nH]c3ccc(F)cc23)C(=O)N1", "note": "(racemic) [Compound 1, 3-(5-fluoro-1H-indol-3-yl)pyrrolidine-2,5-dione]", "values": [
      {"measurement": "Kynurenine concentration in plasma (average ± standard error of the mean)", "setting": "Kynurenine [1]; 100 mg/kg oral", "result": "111.1 ± 27.0", "unit": "ng/mL"},
      {"measurement": "inhibition of circulating Kynurenine", "setting": "Kynurenine [1]; 100 mg/kg oral", "result": 41, "unit": "%"},
      {"measurement": "Kynurenine concentration in plasma (average ± standard error of the mean)", "setting": "Kynurenine [1]; 200 mg/kg oral", "result": "77.7 ± 9.2", "unit": "ng/mL"},
      {"measurement": "inhibition of circulating Kynurenine", "setting": "Kynurenine [1]; 200 mg/kg oral", "result": 59, "unit": "%"},
      {"measurement": "Mean tumor volume on day 25", "setting": "4T1 tumors", "result": 443.7, "unit": "mm^3"},
      {"measurement": "TGI (Tumor growth inhibition)", "setting": "4T1 tumors; day 25", "result": 43.4, "unit": "%"},
      {"measurement": "Mean tumor volume on day 42", "setting": "PancO2 tumors", "result": 457.0, "unit": "mm^3"},
      {"measurement": "TGI (Tumor growth inhibition)", "setting": "PancO2 tumors; day 42", "result": 26.2, "unit": "%"},
      {"measurement": "Kynurenine concentration (ng/g tumor) Average ± SEM", "setting": "Kynurenine [2]", "result": "417.2 ± 55.7", "unit": "ng/g tumor"},
      {"measurement": "reduction of Kynurenine concentration", "setting": "Kynurenine [2]", "result": 47, "unit": "%"},
      {"measurement": "Kynurenine concentration (ng/g tumor) Average ± SEM", "setting": "Kynurenine [3]", "result": "876 ± 68", "unit": "ng/g tumor"},
      {"measurement": "reduction of Kynurenine concentration", "setting": "Kynurenine [3]", "result": 59, "unit": "%"},
      {"measurement": "% TGI (D15)", "setting": "CT26 tumors; CT26, 100 mg/kg BID", "result": 29, "unit": "%"},
      {"measurement": "% TGI (D17)", "setting": "CT26 tumors; CT26, 100 mg/kg BID", "result": 33, "unit": "%"},
      {"measurement": "% TGI (D20)", "setting": "CT26 tumors; CT26, 100 mg/kg BID", "result": 20, "unit": "%"},
      {"measurement": "% TGI (D15)", "setting": "CT26 tumors; CT26, 200 mg/kg BID", "result": 38, "unit": "%"},
      {"measurement": "% TGI (D17)", "setting": "CT26 tumors; CT26, 200 mg/kg BID", "result": 41, "unit": "%"},
      {"measurement": "% TGI (D20)", "setting": "CT26 tumors; CT26, 200 mg/kg BID", "result": 34, "unit": "%"},
      {"measurement": "% TGI (D15)", "setting": "CT26 tumors; CT26, 600 mg/kg BID", "result": 36, "unit": "%"},
      {"measurement": "% TGI (D17)", "setting": "CT26 tumors; CT26, 600 mg/kg BID", "result": 51, "unit": "%"},
      {"measurement": "% TGI (D20)", "setting": "CT26 tumors; CT26, 600 mg/kg BID", "result": 38, "unit": "%"}
    ]}
  ]
}
